According to ChEMBL document CHEMBL3714737, “Small molecule modulators of G protein-coupled receptor six” (2002):
Active and inactive are the calls of the source. The calls are words filed in the database; no cut-off is given here.

Columns and labels:
Rattus norvegicus [1] = assay: Effect on motor function in ip dosed Sprague-Dawley rat assessed as effect on locomotor activity after 16 hrs post dose; format: ADME, organism-based; conditions: in vivo
Rattus norvegicus [2] = assay: Reduction in body weight gain in 24 hrs food-deprived Sprague-Dawley rat at 6.75 to 54 mg/kg, ip followed by standard chow pellets feeding and measured for 6.5 hrs post dose; format: functional, organism-based
Rattus norvegicus [3] = assay: Reduction in 24 hrs food intake in 24 hrs food-deprived Sprague-Dawley rat at 6.75 to 54 mg/kg, ip followed by standard chow pellets feeding and measured for 6.5 hrs post dose; format: functional, organism-based
Rattus norvegicus [4] = assay: Reduction in body weight gain in 24 hrs food-deprived Sprague-Dawley rat at 27 and 54 mg/kg, ip followed by standard chow pellets feeding and measured for 6.5 hrs post dose; format: functional, organism-based
Rattus norvegicus [5] = assay: Effect on motor function in ip dosed Sprague-Dawley rat assessed as effect on locomotor activity after 1.5 hrs post dose; format: ADME, organism-based; conditions: in vivo
Rattus norvegicus [6] = assay: Reduction in body weight gain in non-food-deprived Sprague-Dawley rat at 13.5 mg/kg, ip qd for 22 days measured between day-31 and day-60 post dose; format: functional, organism-based
Rattus norvegicus [7] = assay: Induction of sedation in non-food-deprived Sprague-Dawley rat subjected to pre-pulse of 12 db followed by 120 db pulse assessed as animal jump height level at 6.75 mg/kg, po dosed […] before test; format: organism-based; conditions: in vivo
Rattus norvegicus [8] = assay: Induction of sedation in ip dosed Sprague-Dawley rat assessed as relaxed behavior after 16 hrs post dose; format: organism-based; conditions: in vivo
Rattus norvegicus [9] = assay: Reduction in water intake in non-food-deprived Sprague-Dawley rat at 6.75 to 54 mg/kg, ip dosed 30 mins before beginning of dark cycle followed by exposure to standard chow pellets and measured 15.5 hrs post dose; format: functional, organism-based
Rattus norvegicus [10] = assay: Reduction in body weight gain in non-food-deprived Sprague-Dawley rat at 13.5 mg/kg, ip qd for 22 days measured on day-1 and day-3 post dose; format: functional, organism-based
Rattus norvegicus [11] = assay: Reduction in food intake in 24 hrs food-deprived Sprague-Dawley rat assessed as food intake level at 54 mg/kg, po followed by standard chow pellets feeding and measured 8 hrs post dose (reference value: 14g); format: functional
Rattus norvegicus [12] = assay: Reduction in body weight gain in non-food-deprived Sprague-Dawley rat at 13.5 mg/kg, ip qd for 22 days measured between day-4 and day-31 post dose; format: functional, organism-based
[13] = target: G-protein coupled receptor 6 (Homo sapiens) (UniProt P46095); assay: Activity at rat G-protein GSalpha fused GPR6 (unknown origin) expressed in HEK293 cell membranes assessed as effect on [35S]GTPgammaS binding pre-incubated for 5 to 10 mins followed by 60 mins incubation in presence of [35S]GTPgammaS by scintillation proximity assay; format: functional
Sequence of G-protein coupled receptor 6 (Homo sapiens) (P46095 whole entry, the tested form may be a part): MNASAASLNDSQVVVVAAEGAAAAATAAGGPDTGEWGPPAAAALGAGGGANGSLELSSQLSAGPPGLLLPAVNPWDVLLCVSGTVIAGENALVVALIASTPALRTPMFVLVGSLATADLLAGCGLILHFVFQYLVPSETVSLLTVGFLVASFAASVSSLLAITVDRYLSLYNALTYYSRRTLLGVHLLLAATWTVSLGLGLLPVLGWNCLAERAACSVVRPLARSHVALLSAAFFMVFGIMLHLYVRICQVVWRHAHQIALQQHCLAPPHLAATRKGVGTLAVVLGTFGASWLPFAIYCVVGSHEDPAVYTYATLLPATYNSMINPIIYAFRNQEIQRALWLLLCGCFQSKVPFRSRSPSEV

Rattus norvegicus [14] = assay: Reduction in food intake in 24 hrs food-deprived Sprague-Dawley rat at 25 to 100 nmol, icv measured 2.5 hrs post dose relative to control; format: functional
Rattus norvegicus [15] = assay: Reduction in water intake in 24 hrs food-deprived Sprague-Dawley rat at 6.75 to 54 mg/kg, ip followed by standard chow pellets feeding and measured for 6.5 hrs post dose; format: functional, organism-based
Rattus norvegicus [16] = assay: Induction of sedation in non-food-deprived Sprague-Dawley rat subjected to pre-pulse of 12 db followed by 120 db pulse assessed as animal jump height level at 13.5 and 54 mg/kg, po dosed […] before test; format: organism-based; conditions: in vivo
Rattus norvegicus [17] = assay: Reduction in water intake in 24 hrs food-deprived Sprague-Dawley rat assessed reduction in water intake level at 100 nmol, icv relative to control; format: functional
Rattus norvegicus [18] = assay: Reduction in body weight gain in non-food-deprived Sprague-Dawley rat at 6.75 to 54 mg/kg, ip dosed 30 mins before beginning of dark cycle followed by exposure to standard chow pellets and measured 15.5 hrs post dose; format: functional, organism-based
Rattus norvegicus [19] = assay: Induction of sedation in ip dosed Sprague-Dawley rat assessed as absence of anxiety-like behavior after 16 hrs post dose; format: organism-based; conditions: in vivo

With `O=C(/N=C1\SSC2=NCCN21)c1cccs1` the Activity (Rattus norvegicus [1]) was “Toxic”, the Activity (Rattus norvegicus [2]) was “Active” and the Activity (Rattus norvegicus [3]) was “Active”. The Activity (Rattus norvegicus [4]) was “Active”, the Activity (Rattus norvegicus [5]) was “Non-toxic” and the Activity (Rattus norvegicus [6]) was “Active”. For the same compound, the Activity (Rattus norvegicus [7]) was “Non-toxic”, the Activity (Rattus norvegicus [8]) was “Toxic” and the Activity (Rattus norvegicus [9]) was “Active”. For the same compound, the Activity (Rattus norvegicus [10]) was “Active”, the Activity (Rattus norvegicus [11]) was 16 g and the Activity (Rattus norvegicus [12]) was “Active”. For the same compound, the Activity [13] was “Active”, the “fold change (FC)” value (Rattus norvegicus [14]) was “<=6” and the Activity (Rattus norvegicus [15]) was “Active”. For the same compound, the Activity (Rattus norvegicus [16]) was “Toxic”, the “inhibition (INH)” value (Rattus norvegicus [17]) was “<=50%” and the Activity (Rattus norvegicus [18]) was “Active”. The Activity (Rattus norvegicus [19]) was “Toxic”.
